{
  "source": "patent US20250073354A1",
  "about": "“COMPOSITIONS AND METHODS FOR DELIVERY OF AGENTS TO INNER EAR” (University of Rochester, priority 2021, published 2025)",
  "key": {"[1]": {"settings": "mouse, in vivo", "protocol": "Briefly, mice were anesthetized with a mixture of Ketamine/Xylazine (100 mg/kg, 10 mg/kg, respectively), after depth of anesthesia was confirmed by the cessation of reflexes, the incision area was properly shaved and sterilized with the aid of ethanol 70% swabs (Vitrex Medical A/S Herlev, DK), followed by iodine solution (Povidone Iodine 7,5% Henry Schein, Melville, NY, USA) applicated using cotton swabs. Before the onset of surgery, analgesics were applied, Lidocaine (0.05 ml, 0.2 mg/ml) was applied in the incision site and Buprenorphine (0.05 mg/kg) injected subcutaneously for post-surgical analgesia. After performing the skin incision around the occipital crest, the neck muscles were separated to reveal the CM underneath. […]\nImmediately after the CM cannulation procedure, animals were moved to MRI scanner and head movement during scanning was minimized by restraining the animals on an MR-compatible stereotactic holder with ear bars. Body temperature was maintained at 37±0.5° C. with a thermostatically controlled waterbed and monitored, along with the respiratory rate by an MR compatible remote monitoring system (SA Instruments, NY, USA). […] Every 3D-CISS image was calculated as a maximum intensity projection from 4 realigned 3D-TrueFISP volumes with 4 orthogonal phase encoding directions (TR/TE 3.9/1.95 ms, Nex 2, FA 50°, FOV 19.2×12.8×12.8 mm, Matrix 192×128×128, BW 150 kHz). […]\nBoth DCE-MRI and CT time series data were motion corrected using Advanced Normalization Tools (ANTs ver.2.1.0) (Avants et al., 2008; Avants et al., 2011). Motion corrected time series in MRI images were converted into percent change from baseline-time series, calculated as the percent signal change from the averaged signal of baseline images."}, "[2]": {"experiment": "CT time series of CSF tracer transport to the cochlea after intracisternal infusion", "assay_type": "in vivo, mouse", "experimental": "During the CM cannulation procedure a custom-made head bar was fixed on the top of the animal skull. The head bar was designed to minimize undesired movements during the image acquisition (Yoshida et al., 2016), and fixed to an animal holder. […] Animal's respiration was monitored by using Biovet software. CT scans were performed with the Vector4CT system (MILabs, Utrecht, Netherlands) and scanning of the entire mouse head was performed in 4.56 min at an isotropic spatial resolution of 20 μm. The time series CT scanning protocol comprised one baseline scan (4.5 min) followed by intracisternal infusion of Omnipaque (350 mg I/ml, 1 μL/min, 10 μL, GE healthcare). Scans continued over 6 measurements (30 min) after intracisternal infusion of Omnipaque.\nThe time-intensity data was extracted using ITK snap with the ROIs described above after background subtraction and then normalized to maximal cisterna magna intensity. Dimensions of cochlear aqueduct were measured using the #X feature in ITK snap for #four animals. Distances between ROIs were calculated using their spatial coordinates.\nTo solve the equation (#ref), inventors implemented a simple finite difference scheme in Python (#ref) using NumPy and Scipy (#ref). Estimation of the dispersion coefficient was achieved by minimizing the L2-norm prediction error, using Scipy (#ref) E: […]"}},
  "note": "Entries after “also recorded” stand apart in the source; their conditions may differ.",
  "data": [
    {"smiles": "O=C([O-])CN1CCN(CC(=O)[O-])CCN([C@H](CO)[C@H](O)CO)CCN(CC(=O)[O-])CC1.[Gd+3]", "note": "(racemic) [Gadovist, gadobutrol]", "values": [
      {"measurement": "Time activity curves for tracer influx in mice lacking aqp4", "setting": "[1]", "result": "did not differ from wild type animals"},
      {"measurement": "Time to reach 50 max", "setting": "[1]", "result": "significantly higher in the cochlea"},
      {"measurement": "Tracer distribution to cochlea", "setting": "[1]", "result": "reaches the cochlea"}
    ]},
    {"smiles": "CC(=O)N(CC(O)CO)c1c(I)c(C(=O)NCC(O)CO)c(I)c(C(=O)NCC(O)CO)c1I", "note": "(centres unmarked) [Omnipaque]", "values": [
      {"measurement": "Tracer concentration in scala vestibuli or cochlear nerve", "setting": "[2]; during the 30 min of scanning", "result": "No clear rise; also recorded: no significant tracer arrives"},
      {"measurement": "Tracer distribution to scala tympani", "setting": "[2]; intracisternal delivery, continuous CT scanning", "result": "reaches the base and middle region of the scala tympani"}
    ]}
  ]
}
